Reference: patent publication US12466856B2, “Echinocandin analogues and preparation method therefor” (SHANGHAI SENHUI MEDICINE CO., LTD., priority 2019, dated 2025)
Like-named read-outs stand apart in the source and are kept apart here. Starred links: 1 amine or outer side, 2 acyl side, 3 side chain; linkers in the order of their positions; H or OH if unused. Positions of bridges follow the written chain, without caps; N, C: chain ends. Non-standard residues stand in square brackets, D forms with d. Residues, ends and D or L forms follow the SMILES beside them. *: point of attachment. Orn(4R-OH,5R-OCH2CH2NMe3+) = C[N+](C)(C)CCO[C@@H](N[*:3])[C@H](O)C[C@H](N[*:1])C(=O)[*:2]; hTyr(3S-OH,4S-OH) = N[C@H](C(=O)O)[C@H](O)[C@@H](O)c1ccc(O)cc1; X1 = O=C(c1ccc(-c2ccc(-c3ccc(OCCCCCF)cc3)cc2)cc1)*; Pro(3S-OH,4S-Me) = C[C@H]1CN[C@H](C(=O)O)[C@H]1O; Hyp = O=C(O)[C@@H]1C[C@@H](O)CN1

Columns and labels:
Format in all cases: cell-based
[1] = test system: Candida albicans ATCC 44858; test: MIC assay (CLSI M27-A3), Candida albicans ATCC 44858; settings: Candida albicans, ATCC44858; second batch; read-out: MIC, Candida albicans ATCC 44858
Method: (§1) After a test compound was serially diluted, an MIC (minimum inhibitory concentration) assay was performed on the standard Candida strain and an MEC (minimum effective concentration) assay on the standard Aspergillus strain. The MIC assay was performed according to the guidelines of the Clinical and Laboratory Standards Institute (CLSI M27-A3) and the MEC assay according to the guidelines of the Clinical and Laboratory Standards Institute (CLSI M38-A2).
(§2) The frozen strain was passaged at least twice, and a single colony was picked and resuspended in normal saline or sterile water in a tube. The suspension was vortexed and adjusted to 0.5 McF (1×10^6 to 5×10^6 CFU/mL) using a spectrophotometer at wavelength 530 nm. The suspension was 50-fold diluted with normal saline and then 20-fold diluted with 1×RPMI 1640 broth (1×10^3 to 5×10^3 CFU/mL). 10 μL of the suspension was applied to an SDA plate for colony counting, with a range from about 10 to 50 single colonies.
(§3) At this time, the bacterium concentration in each well should be 0.5×10^3 to 2.5×10^3 CFU/mL.
(§4) For echinocandin drugs, Aspergillus was incubated at 28° C. for 21-26 h, and then the MEC results were read.
(§5) Yeast-type fungi: A disposable sealing film was applied to the 96-well plate, and the mixture was well mixed by shaking. Observation was performed through a plate reader with the naked eye. Comparisons were made to the growth control, and the minimum compound concentration corresponding to ≥50% growth inhibition was defined as MIC. Pictures were taken and saved using an automatic plate reader.

[2] = test system: Candida tropicalis (amphotericin-resistant strain) ATCC 200956; test: microbe, parasite or virus in culture; settings: Candida tropicalis, ATCC200956, read-out: MIC, Candida tropicalis (amphotericin-resistant strain) ATCC 200956
Method: as §1, §2, §3, §4, §5

[3] = test system: Candida albicans (azole drug-resistant strain) R358; test: MIC assay (CLSI M27-A3), Candida albicans azole drug-resistant strain R358; settings: Candida albicans; second batch; read-out: MIC, Candida albicans (azole drug-resistant strain) R358
Method: as §1, §2, §3, §4, §5

[4] = test system: Candida albicans ATCC 90028; test: MIC assay (CLSI M27-A3), Candida albicans ATCC 90028; settings: Candida albicans, ATCC90028, second batch
Method: as §1, §2
At this time, the bacterium concentration in each well should be 0.5×10^3 to 2.5×10^3 CFU/mL. […]
as §5

[5] = test system: Candida glabrata ATCC 36583; test: MIC assay (CLSI M27-A3), Candida glabrata ATCC 36583; settings: Nakaseomyces glabratus, ATCC36583; second batch; read-out: MIC, Candida glabrata ATCC 36583
Method: as §1, §2, §3, §4, §5

[6] = test system: Candida albicans (azole drug-resistant strain) R357; test: MIC assay (CLSI M27-A3), Candida albicans azole drug-resistant strain R357; settings: Candida albicans; second batch; read-out: MIC, Candida albicans (azole drug-resistant strain) R357
Method: as §1, §2, §3, §4, §5

Candida krusei ATCC 6258 = test: MIC assay (CLSI M27-A3), Candida krusei ATCC 6258
Method: as §1, §2, §3, §4, §5

[7] = test system: Aspergillus flavus ATCC 28539; test: MEC assay (CLSI M38-A2), Aspergillus flavus ATCC 28539; settings: first batch; 28° C., 21-26 h
Method: The MIC assay was performed according to the guidelines of the Clinical and Laboratory Standards Institute (CLSI M27-A3) and the MEC assay according to the guidelines of the Clinical and Laboratory Standards Institute (CLSI M38-A2).
Colonies on the plate were covered with about 1 mL of 0.85% normal saline or sterile water (polysorbate 20 was added at a final concentration of 0.1%-0.01%). […] The homogeneous upper layer of the suspension was transferred to a new sterile tube, which was then sealed and vortexed for 15 s (be careful as the suspension may produce an aerosol when the cover is removed). The concentration of the suspension was adjusted until an OD value of 0.09-0.13 was achieved using a spectrophotometer at 530 nm. […] 100 μL of sample was added to each well of the 96-well plate within 2 h after dilution (the final spore concentration in the susceptibility testing plate was at 0.4×10^4 to 5×10^4 CFU/mL).
Aspergillus: For echinocandin drugs, comparisons were made to the growth control under a plate reader, and the minimum drug concentration that could cause the hyphae to form small, round, compact hyphal particles was defined as MEC. For accurate determination of MEC values, the plate must not be vortexed before reading.

[8] = test system: Candida tropicalis ATCC 750; test: MIC assay (CLSI M27-A3), Candida tropicalis ATCC 750
Method: as §1, §2, §3, §4, §5

[9] = test system: Candida albicans ATCC 90029; test: MIC assay (CLSI M27-A3), Candida albicans ATCC 90029
Method: as §1, §2, §3, §4, §5

[10] = test system: Candida parapsilosis ATCC 22019; test: MIC assay (CLSI M27-A3), Candida parapsilosis ATCC 22019
Method: as §1, §2, §3, §4, §5

[11] = test system: Meyerozyma guilliermondii ATCC 6260; test: MIC assay (CLSI M27-A3), Meyerozyma guilliermondii ATCC 6260
Method: as §1, §2, §3, §4, §5

[12] = test system: Candida glabrata ATCC 15126; test: MIC assay (CLSI M27-A3), Candida glabrata ATCC 15126
Method: as §1, §2, §3, §4, §5

[13] = 24 h, 35° C., read-out: MIC, Candida albicans ATCC 90028
[14] = + 50% human serum, read-out: MIC, Candida albicans + 50% human serum ATCC 90028
[15] = first batch, 24 h, 35° C., quality control strain
[16] = first batch, 24 h, 35° C., ≥50% growth inhibition

Molecule | MIC [1] [µg/mL] | MIC [2] [µg/mL] | MIC [3] [µg/mL] | MIC [4, 13] [µg/mL] | MIC [4, 14] [µg/mL] | MIC [5] [µg/mL] | MIC [6] [µg/mL] | MIC, Candida krusei ATCC 6258 (Candida krusei ATCC 6258; [15]) [µg/mL] | MEC, Aspergillus flavus ATCC 28539 [7] [µg/mL] | MIC, Candida tropicalis ATCC 750 ([8]; first batch, 24 h, 35° C.) [µg/mL] | MIC, Candida albicans ATCC 90029 [9, 16] [µg/mL] | MIC, Candida parapsilosis ATCC 22019 [10, 15] [µg/mL] | MIC, Meyerozyma guilliermondii ATCC 6260 ([11]; first batch, 24 h, 35° C.) [µg/mL] | MIC, Candida glabrata ATCC 15126 [12, 16] [µg/mL] | MIC (Candida krusei ATCC 6258; Pichia kudriavzevii, ATCC6258, 24 h, read-out: MIC, Candida krusei ATCC 6258) [µg/mL] | MIC ([8]; Candida tropicalis, ATCC750, 24 h, read-out: MIC, Candida tropicalis ATCC 750) [µg/mL] | MIC ([9]; Candida albicans, ATCC90029, 24 h, read-out: MIC, Candida albicans ATCC 90029) [µg/mL] | MIC ([10]; Lodderomyces parapsilosis, ATCC22019, 24 h, read-out: MIC, Candida parapsilosis ATCC 22019) [µg/mL] | MIC ([11]; Meyerozyma guilliermondii, ATCC6260, 24 h, read-out: MIC, Meyerozyma guilliermondii ATCC 6260) [µg/mL] | MIC ([12]; Nakaseomyces glabratus, ATCC15126, 24 h, read-out: MIC, Candida glabrata ATCC 15126) [µg/mL]
CCCCCOc1ccc(-c2ccc(-c3ccc(C(=O)N[C@H]4C[C@@H](O)[C@@H](OC[C@H](C)[N+](C)(C)C)NC(=O)[C@@H]5[C@@H](O)[C@@H](C)CN5C(=O)[C@H]([C@@H](C)O)NC(=O)[C@H]([C@H](O)[C@@H](O)c5ccc(O)cc5)NC(=O)[C@@H]5C[C@@H](O)CN5C(=O)[C@H]([C@@H](C)O)NC4=O)cc3)cc2)cc1 [Example 22] | 0.25 | 0.25 | 0.25 | 0.25 | 0.25 | 0.5 | 0.5 | – | – | – | – | – | – | – | – | – | – | – | – | –
Caspofungin acetate [reference compound] | – | – | – | – | – | – | – | 1 | 0.031 | 0.016 | 0.063 | 1 | 1 | 0.25 | – | – | – | – | – | –
C[C@@H](O)[C@@H]1NC(=O)[C@H]([C@H](O)[C@@H](O)c2ccc(O)cc2)NC(=O)[C@@H]2C[C@@H](O)CN2C(=O)[C@H]([C@@H](C)O)NC(=O)[C@@H](NC(=O)c2ccc(-c3ccc(-c4ccc(OCCCCCF)cc4)cc3)cc2)C[C@@H](O)[C@@H](OCC[N+](C)(C)C)NC(=O)[C@@H]2[C@@H](O)[C@@H](C)CN2C1=O [Example 11] (X1-[Orn(4R-OH,5R-OCH2CH2NMe3+)]T[Hyp][hTyr(3S-OH,4S-OH)]T[Pro(3S-OH,4S-Me)]; lactam 1-C) | – | – | – | – | – | – | – | – | 0.031 | – | – | – | – | – | 0.5 | 0.031 | 0.125 | 4 | 2 | 0.5
CCCCCOc1ccc(-c2ccc(-c3ccc(C(=O)N[C@H]4C[C@@H](O)[C@@H](O[C@H]5CC[N+](C)(C)C5)NC(=O)[C@@H]5[C@@H](O)[C@@H](C)CN5C(=O)[C@H]([C@@H](C)O)NC(=O)[C@H]([C@H](O)[C@@H](O)c5ccc(O)cc5)NC(=O)[C@@H]5C[C@@H](O)CN5C(=O)[C@H]([C@@H](C)O)NC4=O)cc3)cc2)cc1 [Example 26] | 0.25 | 0.25 | 0.25 | 0.25 | 0.25 | 0.25 | 0.5 | – | – | – | – | – | – | – | – | – | – | – | – | –
